Here are results for 1 compound from patent US20220202964A1, “HEPARANASE COMPOUNDS AND METHODS OF USE” (University of Florida Research Foundation, Incorporated, priority 2019, published 2022).

What all share (format): biochemical
The subject of one assay is Hyaluronidase. Kind of assay: Fluorescence response to biological species: hyaluronidase. As to conditions: 5 μM; hyaluronidase 5 μg (50 μg also tested); 4 h, 37° C. As to the method: (§1) 5 μM compound 1 (HADP) was incubated with various biological species at the indicated amount/concentration in 96-well microplate. Cysteine (5 mM), Glutathione (5 mM), H2O2 (100 μM), Esterase, Chondroitinase ABC, Hyaluronidase, Lysozyme, β-Glucuronidase, β-Glucosidase (5 μg each) and heparanase (2 μg). For Chondroitinase ABC and Hyaluronidase, 50 μg was also tested. Each sample was performed in triplicates. Then the microplate was sealed with sealing film and incubated at 37° C. for 4 hours. Fluorescence intensity was recorded on Spectramax M5 Multimode plate reader (Molecular Devices, USA). λex/em=365 nm/455 nm.

For the next assay, the target named is T1, heparanase (Homo sapiens, UniProt Q9Y251).
T1 sequence (Q9Y251 36-543): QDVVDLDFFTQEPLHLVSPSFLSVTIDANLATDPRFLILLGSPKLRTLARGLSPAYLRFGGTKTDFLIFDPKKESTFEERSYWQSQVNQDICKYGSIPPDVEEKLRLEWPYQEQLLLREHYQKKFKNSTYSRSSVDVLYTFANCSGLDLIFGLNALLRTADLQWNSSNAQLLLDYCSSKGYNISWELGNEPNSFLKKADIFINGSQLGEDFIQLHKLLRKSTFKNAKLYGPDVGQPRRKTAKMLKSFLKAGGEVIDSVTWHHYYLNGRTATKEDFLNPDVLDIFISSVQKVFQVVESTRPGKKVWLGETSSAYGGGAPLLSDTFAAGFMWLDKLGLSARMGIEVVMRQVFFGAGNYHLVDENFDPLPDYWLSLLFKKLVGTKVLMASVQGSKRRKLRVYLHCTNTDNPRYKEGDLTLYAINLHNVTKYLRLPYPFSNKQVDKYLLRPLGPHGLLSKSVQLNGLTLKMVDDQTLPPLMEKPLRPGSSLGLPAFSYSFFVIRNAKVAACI
The experiment in a line: Kinetics and detection limit of heparanase by Compound 1 (HADP). As to the method: To a solution of 20 μL, of 50 μM HADP (compound 1) and 160 μL 40 mM NaOAc buffer (pH 5.0) buffers was added 20 μL, heparanase with various concentrations (0-0.1 μg/μL) in 96-well microplate. Then final concentration of heparanase is from 0-0.01 μg/μL. Each concentration was performed in triplicates. Then the fluorescence intensity was recorded on Spectramax M5 Multimode plate reader (Molecular Devices, USA) at each timepoint. λex/em=365 nm/455 nm.
To calculate the detection limit, plot the fluorescence intensity against heparanase concentration and fit a line with linear regression. The detection limit was estimated with the following formula. LOD=3 σ/s, where σ represents standard deviation of fluorescent intensity of blank sample, s is the calculated slope of linear regression equation.
To determine the detection limit of Compound 1 (HADP) probe for heparanse, concentration-dependent studies with various concentrations of heparanse over time were performed with 5 μM 1 (HADP). The concentration increases of heparanse led to higher fluorescent intensities at the same time point due to the expedited cleavage of glyosidic bond, releasing more fluorophores. A good linear relationship was obtained in the heparanse concentration range of 0-0.01 μgμl-1 with an equation of F455 nm=650443[HPA]+12.03 (R^2=0.9968). Based on 3σ/s method, the limit of detection (LOD) of Compound 1 for heparanse was calculated to be 0.35 ng/mL (67 pM), indicating the ultra-sensitivity of Compound 1 (HADP) to detect heparanase activity. The kinetic parameters for the enzymatic cleavage of Compound 1 (HADP) were determined via time-dependent fluorescence intensity in the presence of heparanase and probe 1 (HADP) at different concentration.

The target in another assay is T2, Chondroitinase ABC (Proteus vulgaris, UniProt P59807).
T2 sequence (P59807 25-1021): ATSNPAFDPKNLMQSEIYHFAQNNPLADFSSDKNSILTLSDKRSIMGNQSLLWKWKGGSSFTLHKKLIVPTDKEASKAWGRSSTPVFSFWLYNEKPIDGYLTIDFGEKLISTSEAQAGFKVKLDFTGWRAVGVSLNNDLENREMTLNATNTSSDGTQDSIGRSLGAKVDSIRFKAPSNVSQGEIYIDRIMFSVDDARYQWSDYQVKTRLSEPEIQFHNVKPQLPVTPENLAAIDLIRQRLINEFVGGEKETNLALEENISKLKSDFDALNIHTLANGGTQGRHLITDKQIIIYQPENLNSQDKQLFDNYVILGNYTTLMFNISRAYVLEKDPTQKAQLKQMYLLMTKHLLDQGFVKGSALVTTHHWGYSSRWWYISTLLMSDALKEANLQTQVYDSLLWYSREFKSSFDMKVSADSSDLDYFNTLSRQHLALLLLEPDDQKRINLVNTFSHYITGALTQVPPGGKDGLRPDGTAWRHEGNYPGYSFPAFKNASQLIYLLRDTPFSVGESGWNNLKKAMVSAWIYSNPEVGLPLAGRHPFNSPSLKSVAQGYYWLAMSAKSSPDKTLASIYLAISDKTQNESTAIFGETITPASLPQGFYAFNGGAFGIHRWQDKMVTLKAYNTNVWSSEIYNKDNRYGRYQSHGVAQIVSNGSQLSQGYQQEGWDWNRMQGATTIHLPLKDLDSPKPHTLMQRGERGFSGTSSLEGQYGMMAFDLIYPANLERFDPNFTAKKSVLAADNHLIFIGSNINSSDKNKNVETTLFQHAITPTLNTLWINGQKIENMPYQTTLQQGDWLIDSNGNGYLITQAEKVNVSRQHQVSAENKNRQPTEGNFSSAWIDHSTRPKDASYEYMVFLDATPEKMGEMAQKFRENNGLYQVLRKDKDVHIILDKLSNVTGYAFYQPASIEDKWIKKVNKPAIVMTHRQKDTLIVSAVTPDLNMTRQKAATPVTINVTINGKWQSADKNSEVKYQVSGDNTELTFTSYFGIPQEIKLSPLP
Kind of assay: Fluorescence response to biological species: chondroitinase. The settings on record: 5 μM; chondroitinase 5 μg (50 μg also tested); 4 h, 37° C. The procedure: as §1

Values joined by “and” are separate entries in the source; they are usually repeats but may differ in a detail not shown here. Identical values can stand only once.

Usually Km stands for the substrate concentration at which the rate is half of its maximum.

For `Cc1cc(=O)oc2c(F)c(O[C@@H]3O[C@H](C(=O)O)[C@@H](O[C@H]4O[C@H](CO)[C@@H](O)[C@H](O)[C@H]4NS(=O)(=O)O)[C@H](O)[C@H]3O)c(F)cc12` [Compound 1], the fluorescence change entry in the assay with Hyaluronidase and at Chondroitinase ABC was “did not afford obvious fluorescence change” each time. For the same compound, on heparanase (5 μM probe, 3σ/s method), the “limit of detection (LOD) for heparanase” value is 0.35 ng/mL and 67 pM. The “turnover number (kcat)” value on heparanase (enzymatic cleavage by heparanase) turned out to be 0.04 s⁻¹. For the same compound, at heparanase (enzymatic cleavage by heparanase, read-out: Michaelis constant (Km)), the Km was determined as 8.3 µM.
